The subject of the test is HCV 1b genotype. Nature of the test: microbe, parasite or virus in culture. The test is classed as cell-based, Hepatitis C virus. The note with it: for pEC50: read-out: Range: EC50 ranges against HCV 1b. The procedure: An HCV Replicon assay was utilized in the present disclosure, and was prepared, conducted and validated as described in commonly owned PCT/US2006/022197 and in O'Boyle et. al. Antimicrob Agents Chemother. 2005 April; 49(4):1346-53. Assay methods incorporating luciferase reporters have also been used as described (Apath.com).
HCV-neo replicon cells and replicon cells containing resistance substitutions in the NS5A region were used to test the currently described family of compounds.

Where [1] appears, read: Hepatitis C virus, HCV 1b replicon.

pEC50: −log10 of the molar value. Like-named read-outs stand apart in the source and are kept apart here.

A word on the pEC50: it is −log10 of the EC50, conventionally taken in molar units. With `COC(=O)NC(C(=O)N1CCOCC1c1ncc(-c2ccc(-c3ccc(-c4cnc(C5COCCN5C(=O)C(NC(=O)OC)C5CCOC6(CC6)C5)[nH]4)cc3)cc2)[nH]1)C1CCOC2(CC2)C1` [OL8, dimethyl (((3R,3′R)-3,3′-(5,5'-([1,1′-biphenyl]-4,4′-diyl)bis(1H-imidazole-5,2-diyl))bis(morpholine-4,3-diyl))bis(2-oxo-1-(4-oxaspiro[2.5]octan-7-yl)ethane-2,1 diyl))dicarbamate], the pEC50 is 9.05 to 10.00. With `COC(=O)NC(C(=O)N1CCCC1c1nc2cc(C#Cc3ccc4[nH]c(C5CCCN5C(=O)C(NC(=O)OC)C5CCOC6(CC6)C5)nc4c3)ccc2[nH]1)C1CCOC2(CC2)C1` [OL9, dimethyl (((2S,2′S)-2,2′-(5,5′-(ethyne-1,2-diyl)bis(1H-benzo[d]imidazole-5,2-diyl))bis(pyrrolidine-2,1-diyl))bis(2-oxo-1-(4-oxaspiro[2.5]octan-7-ypethane-2,1-diyl))dicarbamate], the negative-log EC50 (pEC50) (HCV 1b replicon) was 9.05 to 10.00. For the compound `COC(=O)N[C@H](C(=O)N1[C@@H](C)CC[C@H]1c1nc(-c2ccc(-c3ccc(-c4c[nH]c([C@@H]5CC[C@H](C)N5C(=O)[C@@H](NC(=O)OC)C56CC(C(F)(F)F)(C5)C6)n4)cc3)cc2)c[nH]1)C12CC(C(F)(F)F)(C1)C2` [OL12, dimethyl (4,4′-biphenyldiylbis(1H-imidazole-4,2-diyl((2S,5S)-5-methyl-2,1-pyrrolidinediyl)((1S)-2-oxo-1-(3-(trifluoromethyl)bicyclo [1.1.1]pent-1-yl)-2,1-ethanediyl)))biscarbamate], the pEC50 under setting [1] is 9.05 to 10.00. For the compound `COC(=O)NC(C(=O)N1C[C@@H](C)C[C@H]1c1nc2cc(C#Cc3ccc4c(ccc5nc([C@@H]6C[C@H](C)CN6C(=O)C(NC(=O)OC)C6CCOC7(CC7)C6)[nH]c54)c3)ccc2[nH]1)C1CCOC2(CC2)C1` (some centres unmarked) [QC9], under “HCV 1b replicon”, the negative-log EC50 (pEC50) is 10.00 to 11.30. For `COC(=O)NC(C(=O)N1CCC[C@H]1c1nc2cc(-c3ccc4c(ccc5nc([C@@H]6CCCN6C(=O)C(NC(=O)OC)C6CCOC7(CC7)C6)[nH]c54)c3)ccc2[nH]1)C1CCOC2(CC2)C1` (stereo partly drawn) [QC10, methyl (2-((2S)-2-(7-(2-((2S)-1-(((methoxycarbonyl)amino)(4-oxaspiro[2.5]oct-7-yl)acetyl)-2-pyrrolidinyl)-1H-benzimidazol-5-yl)-1H-naphtho[1,2-d]imidazol-2-yl)-1-pyrrolidinyl)-1-(4-oxaspiro[2.5]oct-7-yl)-2-oxoethyl)carbamate], the EC50 (Hepatitis C virus, HCV 1b replicon, read-out: 1b (μM): EC50 (Effective 50% inhibitory concentration) against the HCV 1b genotype) was found to be 0.259 nM. Also, the pEC50 under setting [1] was 9.05 to 10.00. Regarding `COC(=O)NC(C(=O)N1[C@@H]2C[C@@H]2C[C@H]1c1nc(-c2ccc(-c3ccc4c(c3)CCc3[nH]c([C@@H]5C[C@H]6C[C@H]6N5C(=O)C(NC(=O)OC)C5CCOC6(CC6)C5)nc3-4)cc2)c[nH]1)C1CCOC2(CC2)C1` (stereo partly drawn) [QC11, methyl (2-((1R,3S,5R)-3-(4-(4-(2-((1R,3S,5R)-2-(((methoxycarbonyl)amino)(4-oxaspiro[2.5]oct-7-yl)acetyl)-2-azabicyclo[3.1.0]hex-3-yl)-4,5-dihydro-3H-naphtho[1,2-d]imidazol-7-yl)phenyl)-1H-imidazol-2-yl)-2-azabicyclo[3.1.0]hex-2-yl)-1-(4-oxaspiro[2.5]oct-7-yl)-2-oxoethyl)carbamate], the pEC50 under setting [1] was 10.00 to 11.30. Turning to `COC(=O)NC(C(=O)N1CCC[C@H]1c1nc2cc(-c3ccc(Oc4cccc5[nH]c([C@@H]6CCCN6C(=O)C(NC(=O)OC)C6CCOC7(CC7)C6)nc45)cc3)ccc2[nH]1)C1CCOC2(CC2)C1` (stereo partly drawn) [QC15, methyl (2-((2S)-2-(5-(4-((2-((2S)-1-(((methoxycarbonyl)amino)(4-oxaspiro[2.5]oct-7-yl)acetyl)pyrrolidin-2-yl)-1H-benzimidazol-4-yl)oxy)phenyl)-1H-benzimidazol-2-yl)pyrrolidin-1-yl)-1-(4-oxaspiro[2.5]oct-7-yl)-2-oxoethyl)carbamate], the pEC50 under setting [1] was 10.00 to 11.30. As for `COC(=O)N[C@H](C(=O)N1[C@H](c2nc(-c3ccc(-c4ccc(-c5c[nH]c([C@@H]6C[C@@]7(C)C[C@H]7N6C(=O)[C@@H](NC(=O)OC)[C@H]6CCOC7(CC7)C6)n5)cc4)cc3)c[nH]2)C[C@@]2(C)C[C@@H]12)[C@H]1CCOC2(CC2)C1` [QC19, dimethyl (4,4′-biphenyldiylbis(1H-imidazole-4,2-diyl((1R,3S,5R)-5-methyl-2-azabicyclo[3.1.0]hexane-3,2-diyl)(1-(4-oxaspiro[2.5]oct-7-yl)-2-oxo-2,1-ethanediyl)))biscarbamate], the pEC50 under setting [1] is 10.00 to 11.30. Regarding “dimethyl (1H,1′H-7,7′-binaphtho[1,2-d]imidazole-2,2′-diylbis((2S)-2,1-pyrrolidinediyl(1-(4-oxaspiro[2.5]oct-7-yl)-2-oxo-2,1-ethanediyl)))biscarbamate [QC13]”, the negative-log EC50 (pEC50) (HCV 1b replicon) was 10.00 to 11.30. “methyl (2-((2S)-2-(7-(2-((2S)-1-(((methoxycarbonyl)amino)(4-oxaspiro[2.5]oct-7-yl)acetyl)-2-pyrrolidinyl)-1H-benzimidazol-5-yl)-4,5-dihydro-1H-naphtho[1,2-d]imidazol-2-yl)-1-pyrrolidinyl)-1-(4-oxaspiro[2.5]oct-7-yl)-2-oxoethyl)carbamate [QC12]”: where the note is “HCV 1b replicon”, the pEC50 was 9.05 to 10.00.
